Source: the NIST ThermoML archive (doi:10.1021/je800231f)
“And” between values parts separate entries of the source, which are not always exact repeats. Equal entries are not always repeated.

Conditions: Crystal

[F-].[F-].[Hg+2] [mercuric difluoride]
Conditions | vapor or sublimation pressure
457 K | 0.00015 kPa
464 K | 0.00018 kPa
466 K | 0.00024 kPa
469 K | 0.0003 kPa
473 K | 0.00024 kPa
474 K | 0.00042 kPa
475 K | 0.00036 kPa
480 K | 0.00048 kPa
481 K | 0.00066 kPa and 0.00042 kPa
483 K | 0.00051 kPa and 0.00054 kPa
487 K | 0.0006 kPa
488 K | 0.00089 kPa
490 K | 0.00076 kPa and 0.00078 kPa
492 K | 0.00078 kPa
493 K | 0.00091 kPa
494 K | 0.00089 kPa
496 K | 0.00115 kPa and 0.00095 kPa and 0.00107 kPa
498 K | 0.00135 kPa and 0.00107 kPa
499 K | 0.00112 kPa
502 K | 0.00162 kPa and 0.00132 kPa
503 K | 0.00151 kPa
504 K | 0.00178 kPa
505 K | 0.00174 kPa
507 K | 0.00162 kPa and 0.00186 kPa
510 K | 0.00209 kPa
511 K | 0.00245 kPa
512 K | 0.00224 kPa
513 K | 0.00288 kPa and 0.00245 kPa
514 K | 0.00229 kPa
515 K | 0.00257 kPa
516 K | 0.00347 kPa
518 K | 0.00363 kPa
520 K | 0.00324 kPa
521 K | 0.00398 kPa and 0.00339 kPa
523 K | 0.00331 kPa
525 K | 0.00437 kPa and 0.00363 kPa
526 K | 0.00479 kPa
527 K | 0.00437 kPa and 0.00457 kPa
528 K | 0.00457 kPa
529 K | 0.0055 kPa
533 K | 0.00575 kPa
535 K | 0.00759 kPa and 0.00617 kPa
537 K | 0.00759 kPa
539 K | 0.00646 kPa
542 K | 0.00871 kPa
543 K | 0.01047 kPa and 0.00871 kPa
544 K | 0.01072 kPa
549 K | 0.00933 kPa
551 K | 0.01318 kPa and 0.01175 kPa
552 K | 0.01445 kPa
555 K | 0.0138 kPa
557 K | 0.0166 kPa and 0.01318 kPa
560 K | 0.01862 kPa and 0.01698 kPa
561 K | 0.01622 kPa
565 K | 0.02188 kPa
568 K | 0.02455 kPa
570 K | 0.02042 kPa
580 K | 0.02951 kPa
589 K | 0.04074 kPa

[F][Hg].[F][Hg] [mercury fluoride (Hg2F2)]
Conditions | vapor or sublimation pressure
496 K | 2.3e-05 kPa
503 K | 3.4e-05 kPa
508 K | 5.8e-05 kPa
509 K | 4.6e-05 kPa
515 K | 7.9e-05 kPa
516 K | 6.8e-05 kPa
520 K | 0.000102 kPa
524 K | 0.000138 kPa
526 K | 0.000138 kPa
531 K | 0.000204 kPa
533 K | 0.000229 kPa
536 K | 0.000288 kPa and 0.000214 kPa and 0.000229 kPa
539 K | 0.000275 kPa
542 K | 0.000389 kPa
543 K | 0.000324 kPa
544 K | 0.000407 kPa
545 K | 0.000437 kPa
546 K | 0.000501 kPa and 0.000363 kPa
547 K | 0.000437 kPa
548 K | 0.000501 kPa
549 K | 0.000457 kPa
552 K | 0.000589 kPa
553 K | 0.00055 kPa
554 K | 0.000871 kPa and 0.000646 kPa and 0.000575 kPa
556 K | 0.000676 kPa
557 K | 0.000794 kPa and 0.000724 kPa
559 K | 0.000871 kPa and 0.000724 kPa and 0.000851 kPa
560 K | 0.000794 kPa
562 K | 0.001 kPa and 0.000912 kPa
563 K | 0.001 kPa
564 K | 0.001288 kPa and 0.001 kPa
565 K | 0.001148 kPa and 0.001259 kPa
567 K | 0.001259 kPa
569 K | 0.00123 kPa
571 K | 0.001585 kPa
572 K | 0.001585 kPa and 0.001445 kPa
573 K | 0.002138 kPa and 0.001549 kPa and 0.001349 kPa
574 K | 0.001585 kPa
576 K | 0.002042 kPa
577 K | 0.002399 kPa
578 K | 0.00195 kPa and 0.002089 kPa and 0.001905 kPa
579 K | 0.002089 kPa
580 K | 0.002089 kPa
582 K | 0.003162 kPa
583 K | 0.002089 kPa
584 K | 0.003236 kPa and 0.002512 kPa
585 K | 0.002692 kPa and 0.002818 kPa
586 K | 0.002884 kPa
588 K | 0.003236 kPa and 0.003162 kPa
589 K | 0.00309 kPa
590 K | 0.003548 kPa
591 K | 0.004571 kPa
592 K | 0.004467 kPa
593 K | 0.003631 kPa
594 K | 0.004467 kPa
595 K | 0.004365 kPa
596 K | 0.004571 kPa and 0.004365 kPa
599 K | 0.006026 kPa and 0.004786 kPa
600 K | 0.006918 kPa and 0.00537 kPa
601 K | 0.005754 kPa
605 K | 0.007762 kPa and 0.006457 kPa and 0.006761 kPa
606 K | 0.006918 kPa [middle of 4 runs]
609 K | 0.00955 kPa
611 K | 0.008128 kPa and 0.00955 kPa and 0.007413 kPa
614 K | 0.01 kPa and 0.00871 kPa
615 K | 0.01 kPa
616 K | 0.01259 kPa and 0.01072 kPa and 0.01097 kPa
617 K | 0.01148 kPa
618 K | 0.0123 kPa
619 K | 0.01023 kPa
622 K | 0.0138 kPa and 0.0123 kPa
623 K | 0.01514 kPa
624 K | 0.01738 kPa
625 K | 0.01862 kPa
626 K | 0.0138 kPa
628 K | 0.01549 kPa
629 K | 0.0195 kPa
